Assay results as given in US6716826B2, “Compounds and their uses” (Rodaris Pharmaceuticals Limited, priority 2000, dated 2004).

Key:
PKA = PKA inhibition assay; assay type: biochemical
Excerpt: (§1) Methods for obtaining A-type and P-type mediators are set out in Caro et al, 1997, and in WO98/11116 and WO98/11117. Protocols for determining characteristic IPG biological activities such as PDH activation, PKA inhibition, acetylCoA activation, fructose-1,6-bis-phosphatase activity and lipogenesis are well known in the art, e.g. as described in Caro et al ^[14].
(§2) The compounds of the invention can be tested for one or more the characteristic IPGP and/or IPG-A activities mentioned above to determine whether they will be suitable for use a IPG mimetics or antagonists. Preferred assays measure the effect of the compounds on PDH phosphatasc, PKA or lipogenesis. Protocols for these assays are provided in Caro et al ^[14].

PDH phosphatase = assay: PDH activation assay; assay type: biochemical
Excerpt: as §1, §2

SMILES	PKA inhibition at 0.1 μM (PKA) [%]	PDH activation at 100 μM (PDH phosphatase) [%]
NC1C(OC2C(O)C(O)C(O)C(O)C2O)OC(CO)C(OC2OC(CO)C(O)C(O)C2O)C1O [RGL1014, O-α-D-Galactopyranosyl-(1-4)-(2-amino-2-deoxy-α-D-glucopyranosyl)-(1-6)-D-myo-inositol]	2	–
NC1C(OC2C(O)C(O)C(O)C(O)C2O)OC(CO)C(OC2OC(CO)C(O)C(O)C2O)C1O [RGL1021, O-(α-D-galactopyranosyl)-(1-4)-(2-amino-2-deoxy-α-D-glucopyranosyl)-(1-6)-D-chiro-inositol]	–	14
NC1C(OC2C(O)C(O)C(O)C(O)C2OP(=O)(O)O)OC(CO)C(OC2OC(CO)C(O)C(O)C2O)C1O [RGL1022, O-α-D-galactopyranosyl-(1-4)-2-ammonio-2-deoxy-α-D-glucopyranosyl-(1-6)-D-chiro-inositol-1-phosphate]	47	–
